Assay results reported in the NIST ThermoML archive (doi:10.1021/je300240k).
Values joined by “and” are separate entries in the source; they are usually repeats but may differ in a detail not shown here. Equal values may be shown once.

Conditions: Liquid, Ebulliometric method (Recirculating still)

F/C=C/C(F)(F)F [trans-1,3,3,3-tetrafluoropropene]
Conditions	vapor or sublimation pressure
223.1 K	21 kPa
228.08 K	28 kPa
232.99 K	36 kPa
238.04 K	47 kPa
243.02 K	61 kPa
248.04 K	77 kPa
253.02 K	96 kPa
257.14 K	115 kPa
258.04 K	119 kPa
259.15 K	125 kPa
261.15 K	136 kPa
263.1 K	147 kPa
263.15 K	147 kPa
265.15 K	160 kPa
267.15 K	173 kPa
268.01 K	178 kPa
269.15 K	186 kPa
271.15 K	201 kPa
273.06 K	216 kPa
273.15 K	216 kPa
275.15 K	233 kPa
277.15 K	250 kPa
278.01 K	258 kPa
279.15 K	269 kPa
281.15 K	288 kPa
282.93 K	306 kPa
283.15 K	308 kPa
285.15 K	330 kPa
287.15 K	352 kPa
287.89 K	361 kPa
289.15 K	376 kPa
291.15 K	401 kPa
292.85 K	423 kPa
293.15 K	427 kPa
295.15 K	455 kPa
297.15 K	484 kPa
297.69 K	492 kPa
297.87 K	495 kPa
298.77 K	508 kPa
299.15 K	514 kPa
301.15 K	546 kPa
303.15 K	579 kPa
303.68 K	588 kPa
305.15 K	614 kPa and 613 kPa
307.15 K	649 kPa
308.82 K	681 kPa
309.15 K	687 kPa
311.15 K	726 kPa
312.85 K	761 kPa
313.15 K	767 kPa
315.15 K	810 kPa
317.15 K	854 kPa
317.75 K	868 kPa
319.15 K	900 kPa
321.15 K	948 kPa
323.1 K	997 kPa
323.15 K	998 kPa
325.15 K	1050 kPa
327.15 K	1104 kPa
328.12 K	1130 kPa
329.15 K	1160 kPa
331.15 K	1218 kPa
333.11 K	1276 kPa
333.15 K	1278 kPa
335.15 K	1340 kPa
337.15 K	1405 kPa
338.11 K	1436 kPa
339.15 K	1472 kPa
341.15 K	1541 kPa
343.1 K	1610 kPa
343.15 K	1613 kPa
348.09 K	1799 kPa
353.08 K	2005 kPa
